Measurements published in patent US10716778B2, “Use of compounds that are able to increase the serum IGF-1 level for the preparation of a therapeutical composition for treatment of various disease states associated with a reduced IGF-1 serum level in humans and animals” (VEIJLEN N.V., priority 2003, dated 2020).
“And” between values parts separate entries of the source, which are not always exact repeats. Equal entries are not always repeated.

Tests used:
[1] = test system: type 2 diabetic patients; assay: Well-being of type 2 diabetic patients after treatment (Example 4); assay type: in vivo, human; conditions: type 2 diabetes patients
Excerpt: Five male type 2 diabetic patients took part in the study. They were all very difficult to regulate. When the study started, the average HbA1c was to be approximately 9.0%. The patients had no other clinical problems. In addition, the IgF-BP3/IgF-1 ratio had to be over 10. The age of the subjects were between 45 years and 75 years with an average of 58. The period of the investigation was 6 months. At the start of the study, after 2 month, 4 months and at the end at 6 months, blood was taken. The following parameters were checked: IGF-1 and IGF-PB-3. Also, at the start, safety parameters (liver tests, hematology) were determined. Every 8 weeks, HbA1c was determined.

[2] = test system: IGF-1; assay: IGF-1 levels in poor-growing piglets treated with IAA (Example 7); assay type: in vivo, piglets (Dutch Landrace)
Excerpt: (§1) The trial was done in a well-managed farm with 1000 sows of the Dutch Landrace. Although the farm is well run, the technical performance is not optimal. There were latent problems with mortality and with growth rates of the piglets. There are too many poor-growing piglets, without fully understanding the technical or veterinary reason. There is no clear pathology to be seen on the farm.
(§2) The farmer selected the poor-growing piglets for this weaning period. The piglets were weaned for two days at the start of the trial. There were three groups: the normal well-growing piglets, which served as a control group; the B group with 78 poor growers that are treated with 12.5 mg/kg/LW (Life Weight) IAA; and the X group with 52 poor growers that are not treated.
(§3) Blood samples for IGF-1 measuring were taken from each group at the beginning of the trial and at the end of the trial. Two pens (13 piglets) of the B and X groups were weighed at the beginning and at the end of the trial. The active ingredient IAA was mixed in dextrose. […] The B group received the treatment five days after the first IGF-1 measuring.

[3] = test system: poor-growing piglets; assay: Weight gain and appearance of poor-growing piglets treated with IAA (Example 7); assay type: in vivo, piglets (Dutch Landrace)
Excerpt: as §1, §2, §3

[4] = test system: IGF-1; assay: IGF-1 concentration in problem piglets (group P) with history of PRRSV treated with IAA (Example 9); assay type: in vivo, Belgian Land Race piglets; conditions: for IGF-1: group P piglets, acetic acid
Method: (§4) The piglets were weaned at four weeks and relocated, twelve piglets per pen. IGF-1 levels from three different groups were tested at the age of five weeks.
(§5) These are the pigs with the big problems. They are looking poor, have a low weight, bad color and some of them have Staphylococcus infections. It was the firm belief of the farmer and the veterinarian that these piglets would not reach the end of the fattening cycle. Blood samples were taken at random from five of the twelve piglets.
(§6) After seeing the low IGF-1 levels in group P, it was decided to give them the same treatment as in humans with CFS. The average weight of the piglets would have been around seven kilos at five weeks of age. They were treated with 125 mg of the composition comprising 5 mg IAA and 120 mg NaCl and WPC 70 for ten days. The product was fed in a trough, mixed in liquid feed. All the piglets ate from the same trough.
After ten days of treatment, random blood samples were taken from the different groups. A code was added for the size of the animals (K=small; N=normal; Z=heavy).
At random, IGF-1 concentrations of five piglets of this group were measured.
Three weeks later, blood samples were again taken, but only from the problem group.

[5] = test system: piglets that had a history of PRRSV; assay: Health condition of problem piglets (group P) with history of PRRSV treated with IAA (Example 9); assay type: in vivo, Belgian Land Race piglets; conditions: after ten days of treatment
Method: as §4, §5, §6

indole acetic acid [IAA]
how the patients felt after the treatment [1]: felt better | IGF-1 level, 2nd measurement ([2]; treated group B, individual piglets, after 21 days of 12.5 mg/kg/LW IAA in feed, acetic acid, 12.5 mg/kg): 25.2 nmol/L and 28.9 nmol/L and 25.5 nmol/L and 29.9 nmol/L and 16.9 nmol/L | IGF-1 level, 1st measurement ([2]; treated group B, individual piglets, beginning of the trial, before treatment, acetic acid): 3 nmol/L and 2.7 nmol/L and 6.1 nmol/L and 5.3 nmol/L and 5.7 nmol/L | IGF-1 level, 2nd measurement, average ([2]; treated group B, average of 5 piglets, after 21 days of treatment, control 23.6, non-treated X 17.2, acetic acid): 25.3 nmol/L and 25.28 nmol/L | IGF-1 level, 1st measurement, average ([2]; treated group B, average of 5 piglets, before treatment): 4.56 nmol/L | effect on IGF-1 levels in poor-growing piglets ([2]; treatment for 14-21 days with 12.5 mg/kg/LW IAA): effectively restores IGF-1 levels | appearance of piglets in group B versus group X ([3]; after one week): looking better | weight of poor-growing animals ([3]; animal experiments, summary): increased to normal levels | average extra weight gain of treated group over non-treated ([3]; pens that were weighed, period of 21 days): ~0.5 kg | av. Weight gain ([3]; treated pens of group B, 21 days, acetic acid): 7.02 kg and 6.08 kg | Weighing 1 average ([3]; treated pens of group B, beginning of the trial, average per piglet, acetic acid): 6.62 kg and 6.77 kg | Weighing 1 Total ([3]; treated pens of group B, beginning of the trial, total per pen, acetic acid): 86 (n = 13) kg and 88 (n = 13) kg | Weighing 2 average ([3]; treated pens of group B, end of the trial, average per piglet, acetic acid): 13.64 kg and 12.85 kg | Weighing 2 Total ([3]; treated pens of group B, end of the trial, total per pen, acetic acid): 150 (n = 11) kg and 167 (n = 13) kg | average extra growth of pen B 3 L(eft) over neighbors from pen X 4 L(eft) ([3]; treated vs non-treated pen): 850 grams | IGF-1 ([4]; age five weeks, before treatment (baseline), random individual piglets): 2.3 nmol/l and <0.5 nmol/l (2×) and 2.0 nmol/l and 1.8 nmol/l | IGF-1 ([4]; after ten days of treatment (125 mg composition = 5 mg IAA), random individual piglets): 0.8 nmol/l and <0.5 nmol/l (3×) and 4.2 nmol/l | IGF-1 ([4]; three weeks later, treatment stopped, individual piglets): 55.6 nmol/L and 30.0 nmol/L and 23.4 nmol/L and 65.1 nmol/L and 13.7 nmol/L and 60.1 nmol/L and 36.9 nmol/L | change of IGF-1 levels ([4]; group P, after ten days of treatment): did not rise | Staphylococcus infection [5]: no piglets suffered from Staphylococcus infection anymore | condition of the piglets [5]: dramatically improved | survival [5]: All twelve pigs were still alive
